From article PMC3371024, “A Novel 5-Enolpyruvylshikimate-3-Phosphate Synthase Shows High Glyphosate Tolerance in Escherichia coli and Tobacco Plants” (PLoS ONE, 2012)

How the values were obtained:
AM79 EPSPS [1] = test system: T1, AM79 EPSPS; assay: Pi release (Lanzetta reagent, […] nm); Michaelis-Menten fit; type: biochemical, uncultured soil bacterium; conditions: 1 mM S3P, no glyphosate, 50 mM HEPES-NaOH pH 7.0, 100 mM KCl, 2 mM DTT, 25 °C; read-out: K m (PEP; μM)
T1 construct: gene aroA; aroA in pET-28a, stop codon removed so two His tags (N- and C-terminal), E. coli Rosetta (DE3), Ni-NTA purified; printed residues Ala107, Phe114, Ala355, His356, Glu357

A1501 EPSPS = target: T2, A1501 EPSPS (Stutzerimonas stutzeri, UniProt A4VLZ3); assay: Pi release (Lanzetta reagent, […] nm); Km(obs) of PEP versus glyphosate; type: biochemical; conditions: 1 mM S3P, varied PEP, 50 mM HEPES-NaOH pH 7.0, 100 mM KCl, 2 mM DTT, 25 °C; competitive with PEP; read-out: K i (glyphosate; μM)
T2 construct: gene aroA

G2 EPSPS = target: T3, G2 EPSPS (Pseudomonas fluorescens, UniProt A1Z0H6); assay: as above; type: biochemical; conditions: 1 mM S3P, varied PEP, 50 mM HEPES-NaOH pH 7.0, 100 mM KCl, 2 mM DTT, 25 °C; competitive with PEP; read-out: K i (glyphosate; μM)
T3 construct: gene aroA

AM79 EPSPS [2] = target: T1, AM79 EPSPS; assay: as above; type: biochemical, uncultured soil bacterium; conditions: 1 mM S3P, varied PEP, 50 mM HEPES-NaOH pH 7.0, 100 mM KCl, 2 mM DTT, 25 °C; competitive with PEP; read-out: K i (glyphosate; μM)

Compound	Km (AM79 EPSPS [1])	Ki (A1501 EPSPS)	Ki (G2 EPSPS)	Ki (AM79 EPSPS [2])
C=C(OP(=O)(O)O)C(=O)O [PEP]	14.59 ± 0.11 µM			
O=C(O)CNCP(=O)(O)O [glyphosate, N-phosphonomethyl glycine]		467 ± 30.2 µM	44.7 ± 5.2 µM	154 ± 4.06 µM
